# Experimental data reported in patent US20010047021A1, “Cancer treatment” (The Procter & Gamble Company, priority 2000, published 2001).
# Tested on: SK-OV-3 tumor lines
# Assay: SK-OV-3 tumor in nude mouse, average tumor weight
# Type: in vivo
# Experimental: 2-Methoxycarbonylamino-4,5,6,7-tetrafluorobenzimidazole (tetrafluoro) was used to treat SK-OV-3 tumor lines in nude mouse. The average tumor weight is reported in mg. The control was the vehicle given twice a week and also 5 times a week. The 2-methoxycarbonyl-amino-4,5,6,7- tetrafluorobenzimidazole was also given on this same schedule. Both compounds were administered by oral gavage.
structure (smiles),measurement,setting,value
"COC(=O)Nc1nc2c(F)c(F)c(F)c(F)c2[nH]1 [Tetrafluoro, 2-Methoxycarbonylamino-4,5,6,7-tetrafluorobenzimidazole]",Average Tumor Weight,"2000 mg/kg 2x wkly, oral gavage, day 1",58.5 mg
same,Average Tumor Weight,"2000 mg/kg 2x wkly, oral gavage, day 5",108.1 mg
same,Average Tumor Weight,"2000 mg/kg 2x wkly, oral gavage, day 9",246.8 mg
same,Average Tumor Weight,"2000 mg/kg 2x wkly, oral gavage, day 12",476.2 mg
same,Average Tumor Weight,"2000 mg/kg 2x wkly, oral gavage, day 15",770 mg
same,Average Tumor Weight,"2000 mg/kg qdx5, oral gavage, day 1",59.1 mg
same,Average Tumor Weight,"2000 mg/kg qdx5, oral gavage, day 5",106.2 mg
same,Average Tumor Weight,"2000 mg/kg qdx5, oral gavage, day 9",255.8 mg
same,Average Tumor Weight,"2000 mg/kg qdx5, oral gavage, day 12",381.7 mg
same,Average Tumor Weight,"2000 mg/kg qdx5, oral gavage, day 15",781.2 mg
same,Average Tumor Weight,"4000 mg/kg 2x wkly, oral gavage, day 1",59.5 mg
same,Average Tumor Weight,"4000 mg/kg 2x wkly, oral gavage, day 5",98.6 mg
same,Average Tumor Weight,"4000 mg/kg 2x wkly, oral gavage, day 9",204 mg
same,Average Tumor Weight,"4000 mg/kg 2x wkly, oral gavage, day 12",336.6 mg
same,Average Tumor Weight,"4000 mg/kg 2x wkly, oral gavage, day 15",672.9 mg
same,Average Tumor Weight,"4000 mg/kg qdx5, oral gavage, day 1",59.5 mg
same,Average Tumor Weight,"4000 mg/kg qdx5, oral gavage, day 5",66.1 mg
same,Average Tumor Weight,"4000 mg/kg qdx5, oral gavage, day 9",150.8 mg
same,Average Tumor Weight,"4000 mg/kg qdx5, oral gavage, day 12",160.7 mg
same,Average Tumor Weight,"4000 mg/kg qdx5, oral gavage, day 15",315.8 mg
same,effect on the growth of the tumor,"SK-OV-3 tumor, nude mouse, oral gavage",dose responsive effect
